Tests used:
[1] = system: H9c2 cells; experiment: Cytotoxicity on H9c2 cells (CCK-8); type: cell-based, rat; conditions: H9c2 cells, n=3; for inhibition at 25 µM / inhibition at 50 µM / inhibition at 100 µM: Rattus norvegicus, read-out: Inhibition rate
Description: (§1) Rat myocardial H9c2 cells (purchased from China Infrastructure of Cell Line Resources, Institute of Basic Medical Sciences, Chinese Academy of Medical Sciences) were cultured in DMEM supplemented with 10% fetal bovine serum (FBS), Penicillin (100 U/mL), and Streptomycin (100 μg/mL) at 37 °C under a humidified atmosphere of 5% CO2 and 95% air. For OGD/R treatment, H9c2 cells were cultured in glucose-free DMEM under hypoxic conditions (95%N2 + 5%CO2) for 4 h at 37 °C followed by complete medium under normal conditions with air (95%) and CO2 (5%) for 2 h. A control group was maintained under normal culture conditions (with glucose-containing DMEM and 5% CO2) without undergoing OGD/R treatment. CCK8 was used to assess cell viability. After treatment, H9c2 cells were seeded in 96-well plates, with each well supplemented with 10 μL of CCK-8 solution and then incubated for 1 h. Finally, the absorbance at 450 nm was detected by a microplate reader (Model […] 200 PRO, TECAN, Grodig, Austria).
When evaluating the cytotoxicities of the absorbed compounds, the H9c2 cells were seeded in 96-well plates at a density of 1 × 10^4 cells/well; when cells reached 80% confluence, […] Afterward, the protective effects were verified by assessing the cell viability when treating with different concentrations (1, 10, 25, 50, and 100 μM) of the analytes prior to OGD/R treatment.

[2] = system: OGD/R-induced H9c2 cells; experiment: Protective effect on OGD/R-induced H9c2 cells (CCK-8 cell viability); type: cell-based, rat; conditions: 1, 10, 25, 50 and 100 μM prior to OGD/R, vs model group
Description: as §1
When evaluating the cytotoxicities of the absorbed compounds, the H9c2 cells were seeded in 96-well plates at a density of 1 × 10^4 cells/well; when cells reached 80% confluence, they were treated with 25 and 50 μM of the 24 analytes to screen the non-toxic concentration ranges. Afterward, the protective effects were verified by assessing the cell viability when treating with different concentrations (1, 10, 25, 50, and 100 μM) of the analytes prior to OGD/R treatment.

[3] = Concentrations of 24 analytes in QSG treated plasma (Table S5); conditions: for Exposure level in vivo (in words) / Concentration: QSG treated plasma; for Exposure level in vivo (in words): Table S5; for concentration at 0.5 h / concentration at 1 h / concentration at 0.08 h / concentration at 0.17 h / concentration at 2 h / concentration at 4 h / concentration at 8 h / concentration at 12 h: Sprague Dawley, rat, 7 g/kg; for Concentration: n = 5
[4] = Pharmacokinetic study in rats after oral administration of QSG
Description: Ion source parameters were set as follows: temperatures of drying gas and sheath gas were 300 °C and 300 °C, flow rates of drying gas and sheath gas were 7 L/min and 11 L/min, the nebulizer was set at 35 psig, capillary voltage was 3500 V (−), and nozzle voltage was 2000 V (−). […] Chromatographic separations were conducted on a ZORBAX Eclipse Plus C18 column (3.0 × 50 mm, 1.8 μm, Agilent Technologies, California, USA). The mobile phase was composed of 0.1% aqueous FA (A, (v/v)) and 0.1% formic acid methanol (B), the flow rate was set at 0.5 mL/min, and the column oven was maintained at 40 °C.
Protein precipitation was carried out for each time point for plasma samples, calibration samples, or QC samples by introducing four volumes of acetonitrile containing 400 ng/mL of icariin. Then, 10 μL 10% aqueous ascorbic acid (v/v) was spiked into each sample to prevent the oxidation of phenolic compounds. […] An aliquot (450 μL) of the supernatant was transferred and dried under nitrogen vacuum.
The pharmacokinetic parameters were calculated by DAS software (version 2.0) for a non-compartmental analysis.

[5] = rat plasma, single oral 7 g/kg QSG, n = 6

| Compound | Inhibition rate ([1]; 25 μM) [%] | Inhibition rate ([1]; 50 μM) [%] | Inhibition rate ([1]; 100 μM) [%] | H9c2 cell survival after OGD/R (in words) [2] | inhibition at 25 µM ([1]; 25 μM) [%] | inhibition at 50 µM ([1]; 50 μM) [%] | inhibition at 100 µM ([1]; 100 μM) [%] | Concentration ([3]; 0.5 h) [ng/mL] | Concentration ([3]; 1 h) [ng/mL] | also measured |
| --- | --- | --- | --- | --- | --- | --- | --- | --- | --- | --- |
| C=C[C@H]1[C@H](O[C@@H]2O[C@H](CO)[C@@H](O)[C@H](O)[C@H]2O)OC=C(C(=O)OC)[C@H]1CC(=O)O [Secoxyloganin] | 3.5 ± 1.2 | 7.9 ± 3.3 | 9.9 ± 2.7 | – | – | – | – | – | – | – |
| COC(=O)C1=CO[C@@H](O[C@@H]2O[C@H](CO)[C@@H](O)[C@H](O)[C@H]2O)[C@@H]2[C@@H](C)[C@H](O)C[C@H]12 [7-epi-loganin] | – | – | – | significantly improve H9c2 cell survival rates | 2.8 ± 0.9 | 7.1 ± 4.3 | 10.3 ± 3.5 | – | – | Exposure level in vivo (in words) [3]: relatively lower exposure levels; concentration at 0.5 h ([3]; plasma, oral): 1.73 ± 0.49 ng/mL; concentration at 1 h ([3]; plasma, oral): 1.5 ± 0.298 ng/mL |
| COC[C@]12O[C@H]1[C@@H](O)[C@@H]1C=CO[C@@H](O[C@@H]3O[C@H](CO)[C@@H](O)[C@H](O)[C@H]3O)[C@@H]12 [10-methoxyl catalpol] | 2.8 ± 0.9 | 5.1 ± 4.3 | 9.1 ± 4.2 | – | – | – | – | 2.315 ± 0.283 | 1.293 ± 0.135 | – |
| C=C[C@H]1[C@H](O[C@@H]2O[C@H](CO)[C@@H](O)[C@H](O)[C@H]2O)OC=C(C(=O)O)[C@H]1CC(=O)O [Secologanoside] | -15.6 ± 7.9 | 11.0 ± 7.7 | 19.1 ± 3.7 | – | – | – | – | 4.124 ± 1.235 | 2.135 ± 1.024 | Concentration ([3]; 2 h): 1.274 ± 0.246 ng/mL |
| O=C(/C=C/c1ccc(O)c(O)c1)O[C@@H]1C[C@@](O)(C(=O)O)C[C@@H](O)[C@@H]1O [Neochlorogenic acid] | -12.8 ± 1.3 | 3.8 ± 2.2 | 5.7 ± 2.3 | significantly improve H9c2 cell survival rates | – | – | – | – | – | AUC0→∞ ([4]; Table S12, rats, oral QSG): 1418 ng·h/mL; AUC0→t [4, 5]: 167.1 ± 68.93 ng·h/mL; Cmax [4, 5]: 68.12 ± 4.044 ng/mL; MRT [4, 5]: 6.104 ± 2.911 h; Tmax [4, 5]: 0.398 ± 0.093 h |
| COc1ccc(-c2coc3cc(O[C@@H]4O[C@H](CO)[C@@H](O)[C@H](O)[C@H]4O)ccc3c2=O)cc1O [Calycosin-7-O-glucoside, Calycosin-7-O-D-glucoside] | -1.2 ± 3.5 | 7.8 ± 6.4 | 11.8 ± 6.1 | – | – | – | – | 8.612 ± 0.681 | 3.192 ± 1.624 | Concentration ([3]; 0.08 h): 1.161 ± 0.988 ng/mL; Concentration ([3]; 0.17 h): 2.081 ± 1.576 ng/mL; Concentration ([3]; 2 h): 3.096 ± 2.601 ng/mL; Concentration ([3]; 4 h): 1.198 ± 1.103 ng/mL; Concentration ([3]; 8 h): 1.241 ± 0.963 ng/mL; Concentration ([3]; 12 h): 0.536 ± 0.271 ng/mL |
| O=C1C[C@@H](c2ccc(O[C@@H]3O[C@H](CO)[C@@H](O)[C@H](O)[C@H]3O)cc2)Oc2cc(O)ccc21 [Liquiritin] | – | – | – | – | -7.4 ± 7.5 | 11.6 ± 0.6 | 17.6 ± 1.2 | – | – | concentration at 0.08 h ([3]; plasma, oral): 2.07 ± 1.32 ng/mL; concentration at 0.17 h ([3]; plasma, oral): 11.8 ± 10.9 ng/mL; concentration at 0.5 h ([3]; plasma, oral): 26.8 ± 4.42 ng/mL; concentration at 1 h ([3]; plasma, oral): 17.8 ± 5.29 ng/mL; concentration at 2 h ([3]; plasma, oral): 8.3 ± 2.48 ng/mL; concentration at 4 h ([3]; plasma, oral): 4.02 ± 3.3 ng/mL; concentration at 8 h ([3]; plasma, oral): 2.17 ± 0.609 ng/mL; concentration at 12 h ([3]; plasma, oral): 1.36 ± 2.74 ng/mL |
| COc1ccc(CCO[C@@H]2O[C@H](CO[C@@H]3OC[C@H](O)[C@H](O)[C@H]3O)[C@@H](OC(=O)/C=C/c3ccc(O)c(OC)c3)[C@H](O[C@@H]3O[C@@H](C)[C@H](O)[C@@H](O)[C@H]3O)[C@H]2O)cc1O [Angoroside C] | 3.6 ± 4.5 | 12.7 ± 5.1 | 18.7 ± 1.1 | significantly improve H9c2 cell survival rates | – | – | – | 4.290 ± 1.023 | 3.109 ± 0.501 | Concentration ([3]; 2 h): 1.029 ± 0.203 ng/mL; Exposure level in vivo (in words) [3]: relatively lower exposure levels |
| COC[C@@]12CC[C@H](OC)[C@]34C(C([C@H](OC)[C@H]13)[C@]1(OC(C)=O)[C@H]3[C@@H](OC(=O)c5ccccc5)[C@](O)(C[C@H]34)[C@@H](OC)[C@@H]1O)N(C)C2 [Hypaconitine] | – | – | – | – | 13.7 ± 4.1 | 20.8 ± 3.2 | 32.8 ± 1.2 | – | – | concentration at 0.08 h ([3]; in vivo): 0.048 ± 0.019 ng/mL; concentration at 0.17 h ([3]; in vivo): 0.202 ± 0.096 ng/mL; concentration at 0.5 h ([3]; in vivo): 0.308 ± 0.041 ng/mL; concentration at 1 h ([3]; in vivo): 0.34 ± 0.066 ng/mL; concentration at 2 h ([3]; in vivo): 0.331 ± 0.081 ng/mL; concentration at 4 h ([3]; in vivo): 0.212 ± 0.084 ng/mL; concentration at 8 h ([3]; in vivo): 0.071 ± 0.049 ng/mL; concentration at 12 h ([3]; in vivo): 0.005 ± 0.013 ng/mL |
| COc1ccc(-c2coc3cc(O[C@@H]4O[C@H](CO)[C@@H](O)[C@H](O)[C@H]4O)ccc3c2=O)cc1 [Formononetin-7-O-glucoside, Formononetin-7-O-D-glucoside] | 0.8 ± 0.9 | 9.1 ± 4.3 | 11.1 ± 2.3 | – | – | – | – | – | – | – |
| O=C1C[C@@H](c2ccc(O)cc2)Oc2cc(O)ccc21 [Liquiritigenin] | -4.4 ± 2.2 | 2.3 ± 3.3 | 8.5 ± 3.6 | – | – | – | – | 4.378 ± 0.959 | 3.255 ± 1.246 | Concentration ([3]; 0.08 h): 1.163 ± 0.835 ng/mL; Concentration ([3]; 0.17 h): 3.082 ± 0.977 ng/mL; Concentration ([3]; 2 h): 2.336 ± 1.150 ng/mL; Concentration ([3]; 4 h): 2.064 ± 0.888 ng/mL; Concentration ([3]; 8 h): 2.239 ± 1.209 ng/mL; Concentration ([3]; 12 h): 2.987 ± 1.135 ng/mL |
| Liquiritin apioside | -25.2 ± 3.5 | -16.2 ± 3.6 | -6.1 ± 2.5 | significantly improve H9c2 cell survival rates | – | – | – | – | – | – |
| O=C(/C=C/c1ccc(O[C@@H]2O[C@H](CO)[C@@H](O)[C@H](O)[C@H]2O)cc1)c1ccc(O)cc1O [Isoliquiritin] | – | – | – | – | -18.3 ± 3.6 | 8.5 ± 2.9 | 13.5 ± 2.3 | – | – | concentration at 0.08 h ([3]; in vivo): 0.332 ± 0.496 ng/mL; concentration at 0.17 h ([3]; in vivo): 1.24 ± 0.874 ng/mL; concentration at 0.5 h ([3]; in vivo): 2.54 ± 0.684 ng/mL; concentration at 1 h ([3]; in vivo): 1.31 ± 0.788 ng/mL; concentration at 2 h ([3]; in vivo): 0.456 ± 0.573 ng/mL; concentration at 4 h ([3]; in vivo): 0.075 ± 0.309 ng/mL; concentration at 8 h ([3]; in vivo): 0.078 ± 0.159 ng/mL; concentration at 12 h ([3]; in vivo): 0.158 ± 0.323 ng/mL |
| COC(=O)C1=CO[C@@H](O[C@@H]2O[C@H](CO)[C@@H](O)[C@H](O)[C@H]2O)[C@@H]2[C@H](C)O[C@@H](O)C[C@H]12 [Morroniside] | – | – | – | significantly improve H9c2 cell survival rates | -10.6 ± 7.6 | 2.1 ± 5.6 | 8.1 ± 3.9 | – | – | Exposure level in vivo (in words) [3]: relatively lower exposure levels; concentration at 0.5 h ([3]; plasma, oral): 3.05 ± 0.802 ng/mL; concentration at 1 h ([3]; plasma, oral): 2.4 ± 0.829 ng/mL |
| COc1ccc(-c2coc3cc(O)ccc3c2=O)cc1O [Calycosin] | – | – | – | – | 6.8 ± 3.9 | 6.3 ± 8.3 | 9.3 ± 4.2 | – | – | concentration at 0.08 h ([3]; plasma, oral): 0.966 ± 0.737 ng/mL; concentration at 0.17 h ([3]; plasma, oral): 2.15 ± 0.363 ng/mL; concentration at 0.5 h ([3]; plasma, oral): 2.51 ± 0.672 ng/mL; concentration at 1 h ([3]; plasma, oral): 1.7 ± 0.563 ng/mL; concentration at 2 h ([3]; plasma, oral): 0.825 ± 0.375 ng/mL; concentration at 4 h ([3]; plasma, oral): 0.589 ± 0.46 ng/mL; concentration at 8 h ([3]; plasma, oral): 0.737 ± 0.203 ng/mL; concentration at 12 h ([3]; plasma, oral): 0.647 ± 0.195 ng/mL |
